Structures are written as SMILES. pIC50: −log10 of the molar value.

One assay has as its target T1, Aurora kinase A (Homo sapiens, UniProt O14965).
T1 sequence (O14965 whole entry): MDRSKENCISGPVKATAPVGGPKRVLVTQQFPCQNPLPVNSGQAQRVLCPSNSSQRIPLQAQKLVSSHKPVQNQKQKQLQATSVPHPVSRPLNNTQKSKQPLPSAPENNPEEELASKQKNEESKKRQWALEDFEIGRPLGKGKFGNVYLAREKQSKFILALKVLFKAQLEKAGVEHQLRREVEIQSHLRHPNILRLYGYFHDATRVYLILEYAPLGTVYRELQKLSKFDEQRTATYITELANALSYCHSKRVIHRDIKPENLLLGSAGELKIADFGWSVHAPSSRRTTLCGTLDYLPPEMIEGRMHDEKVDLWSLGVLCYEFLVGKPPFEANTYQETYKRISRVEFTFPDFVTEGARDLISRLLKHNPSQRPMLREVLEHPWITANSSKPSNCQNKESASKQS
The assay can be described thus: Binding affinity to Aurora A.

Assay [1] in a line: Binding affinity to p38.
Assay [2] addresses Vascular endothelial growth factor receptor 2 (Homo sapiens, UniProt P35968). The experiment in a line: Binding affinity to VEGFR2.
Assay [3] addresses Fibroblast growth factor receptor 1 (Homo sapiens, UniProt P11362). The assay can be described thus: Binding affinity to FGFR1.
Assay [4] has as its target T2, Ephrin type-A receptor 2 (Homo sapiens, UniProt P29317). The assay can be described thus: Binding affinity to ECK.
Assay [5] concerns the target Dual specificity protein kinase CLK1 (Homo sapiens, UniProt P49759). The assay can be described thus: Binding affinity to CLK1.
The target of assay [6] is Mitogen-activated protein kinase kinase kinase 9 (Homo sapiens, UniProt P80192). The assay can be described thus: Binding affinity to MAP3K9.
The target of assay [7] is Protein kinase C beta type (Homo sapiens, UniProt P05771). The assay can be described thus: Binding affinity to PKC beta2.
For assay [8], the target named is Tyrosine-protein kinase ABL1 (Homo sapiens, UniProt P00519). The assay can be described thus: Binding affinity to ABL.
Assay [9] deals with T3, Serine/threonine-protein kinase 3 (Homo sapiens, UniProt Q13188).
T3 sequence (Q13188 whole entry): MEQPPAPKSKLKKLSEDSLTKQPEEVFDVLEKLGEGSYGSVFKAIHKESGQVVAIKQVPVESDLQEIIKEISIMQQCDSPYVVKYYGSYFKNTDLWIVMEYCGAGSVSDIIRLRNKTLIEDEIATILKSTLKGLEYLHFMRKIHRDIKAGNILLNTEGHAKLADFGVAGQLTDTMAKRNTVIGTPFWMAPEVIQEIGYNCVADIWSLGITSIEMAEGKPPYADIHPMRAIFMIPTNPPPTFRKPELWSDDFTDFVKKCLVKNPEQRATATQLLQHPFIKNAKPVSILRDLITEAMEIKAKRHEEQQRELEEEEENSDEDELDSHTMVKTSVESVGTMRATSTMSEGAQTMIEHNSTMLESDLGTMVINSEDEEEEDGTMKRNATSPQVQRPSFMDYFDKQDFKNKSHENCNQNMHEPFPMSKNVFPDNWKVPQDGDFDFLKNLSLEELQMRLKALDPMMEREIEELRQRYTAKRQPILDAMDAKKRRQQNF

The target of assay [10] is Proto-oncogene tyrosine-protein kinase Src (Homo sapiens, UniProt P12931). The experiment in a line: Binding affinity to SRC.
For assay [11], the target named is Tyrosine-protein kinase BTK (Homo sapiens, UniProt Q06187).
Sequence of Tyrosine-protein kinase BTK (Q06187 whole entry): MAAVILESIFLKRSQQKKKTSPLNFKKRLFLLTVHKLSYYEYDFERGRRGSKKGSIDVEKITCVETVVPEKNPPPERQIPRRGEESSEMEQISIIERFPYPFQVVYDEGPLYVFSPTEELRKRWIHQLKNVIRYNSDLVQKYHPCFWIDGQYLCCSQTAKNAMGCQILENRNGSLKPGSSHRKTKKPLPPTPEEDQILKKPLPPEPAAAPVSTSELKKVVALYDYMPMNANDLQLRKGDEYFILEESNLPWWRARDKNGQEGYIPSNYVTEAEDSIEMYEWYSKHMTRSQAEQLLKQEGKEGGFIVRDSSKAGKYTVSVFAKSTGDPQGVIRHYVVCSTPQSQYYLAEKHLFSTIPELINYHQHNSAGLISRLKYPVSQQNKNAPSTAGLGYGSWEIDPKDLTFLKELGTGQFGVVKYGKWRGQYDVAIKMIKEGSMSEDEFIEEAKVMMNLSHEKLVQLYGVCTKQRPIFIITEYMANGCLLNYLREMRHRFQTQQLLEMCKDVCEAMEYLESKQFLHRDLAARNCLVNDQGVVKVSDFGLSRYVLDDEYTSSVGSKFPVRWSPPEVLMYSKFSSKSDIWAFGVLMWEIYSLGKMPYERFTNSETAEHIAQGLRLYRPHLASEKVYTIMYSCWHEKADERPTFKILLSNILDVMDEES
The target in assay [12] is Tyrosine-protein kinase Lck (Homo sapiens, UniProt P06239).
The nature of assay [13]: Binding affinity to NEK at 10 uM.
Assay [14] addresses MAP kinase-activated protein kinase 2 (Homo sapiens) (UniProt P49137). The experiment in a line: Binding affinity to MK2 at 10 uM.
In assay [15] the target is High affinity nerve growth factor receptor (Homo sapiens) (UniProt P04629). The assay can be described thus: Binding affinity to TrkA at 10 uM.
Sequence of High affinity nerve growth factor receptor (Homo sapiens) (P04629 33-796 limits assumed): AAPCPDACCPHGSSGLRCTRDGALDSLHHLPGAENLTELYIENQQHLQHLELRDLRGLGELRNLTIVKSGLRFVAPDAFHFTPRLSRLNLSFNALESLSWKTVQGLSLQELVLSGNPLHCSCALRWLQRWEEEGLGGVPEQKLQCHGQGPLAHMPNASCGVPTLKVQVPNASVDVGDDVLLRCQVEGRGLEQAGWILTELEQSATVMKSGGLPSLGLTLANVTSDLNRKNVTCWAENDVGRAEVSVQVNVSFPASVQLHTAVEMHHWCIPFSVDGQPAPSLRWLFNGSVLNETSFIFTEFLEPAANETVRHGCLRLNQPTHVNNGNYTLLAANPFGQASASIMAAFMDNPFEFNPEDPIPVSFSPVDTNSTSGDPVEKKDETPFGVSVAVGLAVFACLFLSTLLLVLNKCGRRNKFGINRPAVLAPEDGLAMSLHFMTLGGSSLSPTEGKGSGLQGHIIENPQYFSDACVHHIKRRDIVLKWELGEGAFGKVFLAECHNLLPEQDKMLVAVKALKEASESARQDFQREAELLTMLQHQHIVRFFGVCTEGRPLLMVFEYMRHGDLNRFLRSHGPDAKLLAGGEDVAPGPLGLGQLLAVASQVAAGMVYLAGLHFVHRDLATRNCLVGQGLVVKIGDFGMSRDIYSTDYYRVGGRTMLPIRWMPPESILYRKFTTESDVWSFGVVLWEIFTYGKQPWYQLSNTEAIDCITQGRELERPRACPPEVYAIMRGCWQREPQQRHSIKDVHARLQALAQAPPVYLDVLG
The target in assay [16] is Serine/threonine-protein kinase PAK 4 (Homo sapiens) (UniProt O96013). The experiment in a line: Binding affinity to PAK4 at 10 uM.
For assay [17], the target named is T2, Ephrin type-A receptor 2. The experiment in a line: Binding affinity to EPHA2 at 10 uM.
Assay [18] in a line: Binding affinity to PKC at 10 uM.
A short description of assay [19]: Binding affinity to GSK3 at 10 uM.
Assay [20] deals with T4, Aurora kinase A (Homo sapiens) (UniProt O14965).
T4 sequence (whole entry): T1 sequence (O14965 whole entry)
The experiment in a line: Binding affinity to Aurora A at 10 uM.

Assay [21] is described as follows: Binding affinity to p38 at 10 uM.
Assay [22] concerns the target T5, Serine/threonine-protein kinase Sgk1 (Homo sapiens) (UniProt O00141).
T5 sequence (whole entry): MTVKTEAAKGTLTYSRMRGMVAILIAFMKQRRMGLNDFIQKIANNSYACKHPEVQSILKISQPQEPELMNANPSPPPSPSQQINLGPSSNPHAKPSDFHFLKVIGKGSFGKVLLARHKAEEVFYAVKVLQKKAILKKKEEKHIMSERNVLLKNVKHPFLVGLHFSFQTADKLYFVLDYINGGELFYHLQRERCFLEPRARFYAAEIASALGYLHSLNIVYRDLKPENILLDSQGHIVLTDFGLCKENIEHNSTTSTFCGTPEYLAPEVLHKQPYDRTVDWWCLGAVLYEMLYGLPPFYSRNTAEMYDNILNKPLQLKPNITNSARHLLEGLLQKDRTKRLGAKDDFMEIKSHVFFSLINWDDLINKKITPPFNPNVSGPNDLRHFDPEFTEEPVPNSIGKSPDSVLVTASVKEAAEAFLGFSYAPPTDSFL
The assay can be described thus: Binding affinity to SGK at 10 uM.

Assay [23] can be described thus: Binding affinity to MEK.

T2 sequence (P29317 whole entry): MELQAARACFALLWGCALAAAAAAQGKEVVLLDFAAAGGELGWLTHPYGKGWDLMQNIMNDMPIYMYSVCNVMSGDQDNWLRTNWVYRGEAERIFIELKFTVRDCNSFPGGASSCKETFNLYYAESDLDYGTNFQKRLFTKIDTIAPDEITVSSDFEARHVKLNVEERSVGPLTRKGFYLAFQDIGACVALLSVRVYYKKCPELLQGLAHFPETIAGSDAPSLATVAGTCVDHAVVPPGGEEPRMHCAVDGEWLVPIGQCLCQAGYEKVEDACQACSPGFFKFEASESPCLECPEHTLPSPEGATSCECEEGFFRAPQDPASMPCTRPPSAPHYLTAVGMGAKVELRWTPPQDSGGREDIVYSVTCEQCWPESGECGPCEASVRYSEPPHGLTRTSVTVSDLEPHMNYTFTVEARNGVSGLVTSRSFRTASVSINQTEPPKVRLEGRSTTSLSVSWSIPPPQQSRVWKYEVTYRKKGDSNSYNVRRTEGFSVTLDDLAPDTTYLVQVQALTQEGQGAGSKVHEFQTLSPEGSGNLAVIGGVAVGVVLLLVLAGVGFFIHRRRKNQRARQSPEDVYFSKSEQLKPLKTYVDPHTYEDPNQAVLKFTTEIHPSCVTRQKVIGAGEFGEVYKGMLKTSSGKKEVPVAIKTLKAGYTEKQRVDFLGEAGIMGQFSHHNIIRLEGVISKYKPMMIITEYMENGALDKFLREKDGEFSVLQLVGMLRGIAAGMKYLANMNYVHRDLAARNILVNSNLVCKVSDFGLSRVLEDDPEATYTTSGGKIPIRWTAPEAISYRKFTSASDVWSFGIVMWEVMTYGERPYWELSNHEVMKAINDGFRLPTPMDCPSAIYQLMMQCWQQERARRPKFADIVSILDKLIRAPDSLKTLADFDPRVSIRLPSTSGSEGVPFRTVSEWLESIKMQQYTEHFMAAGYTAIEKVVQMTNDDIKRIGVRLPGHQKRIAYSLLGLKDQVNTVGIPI
Sequence of Dual specificity protein kinase CLK1 (P49759 whole entry): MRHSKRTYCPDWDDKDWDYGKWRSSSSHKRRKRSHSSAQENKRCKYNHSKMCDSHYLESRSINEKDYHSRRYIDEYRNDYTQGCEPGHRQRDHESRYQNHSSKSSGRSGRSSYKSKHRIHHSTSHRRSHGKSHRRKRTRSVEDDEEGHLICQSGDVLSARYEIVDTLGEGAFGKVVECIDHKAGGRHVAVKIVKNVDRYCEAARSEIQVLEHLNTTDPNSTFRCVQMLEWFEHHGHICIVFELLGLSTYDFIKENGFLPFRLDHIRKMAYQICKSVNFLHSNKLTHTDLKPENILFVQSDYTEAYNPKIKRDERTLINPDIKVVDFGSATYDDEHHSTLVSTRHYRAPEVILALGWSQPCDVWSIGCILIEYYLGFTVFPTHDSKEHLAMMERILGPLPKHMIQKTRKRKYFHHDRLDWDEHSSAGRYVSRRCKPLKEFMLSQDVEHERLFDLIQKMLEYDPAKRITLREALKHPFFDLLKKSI
Sequence of Vascular endothelial growth factor receptor 2 (P35968 whole entry): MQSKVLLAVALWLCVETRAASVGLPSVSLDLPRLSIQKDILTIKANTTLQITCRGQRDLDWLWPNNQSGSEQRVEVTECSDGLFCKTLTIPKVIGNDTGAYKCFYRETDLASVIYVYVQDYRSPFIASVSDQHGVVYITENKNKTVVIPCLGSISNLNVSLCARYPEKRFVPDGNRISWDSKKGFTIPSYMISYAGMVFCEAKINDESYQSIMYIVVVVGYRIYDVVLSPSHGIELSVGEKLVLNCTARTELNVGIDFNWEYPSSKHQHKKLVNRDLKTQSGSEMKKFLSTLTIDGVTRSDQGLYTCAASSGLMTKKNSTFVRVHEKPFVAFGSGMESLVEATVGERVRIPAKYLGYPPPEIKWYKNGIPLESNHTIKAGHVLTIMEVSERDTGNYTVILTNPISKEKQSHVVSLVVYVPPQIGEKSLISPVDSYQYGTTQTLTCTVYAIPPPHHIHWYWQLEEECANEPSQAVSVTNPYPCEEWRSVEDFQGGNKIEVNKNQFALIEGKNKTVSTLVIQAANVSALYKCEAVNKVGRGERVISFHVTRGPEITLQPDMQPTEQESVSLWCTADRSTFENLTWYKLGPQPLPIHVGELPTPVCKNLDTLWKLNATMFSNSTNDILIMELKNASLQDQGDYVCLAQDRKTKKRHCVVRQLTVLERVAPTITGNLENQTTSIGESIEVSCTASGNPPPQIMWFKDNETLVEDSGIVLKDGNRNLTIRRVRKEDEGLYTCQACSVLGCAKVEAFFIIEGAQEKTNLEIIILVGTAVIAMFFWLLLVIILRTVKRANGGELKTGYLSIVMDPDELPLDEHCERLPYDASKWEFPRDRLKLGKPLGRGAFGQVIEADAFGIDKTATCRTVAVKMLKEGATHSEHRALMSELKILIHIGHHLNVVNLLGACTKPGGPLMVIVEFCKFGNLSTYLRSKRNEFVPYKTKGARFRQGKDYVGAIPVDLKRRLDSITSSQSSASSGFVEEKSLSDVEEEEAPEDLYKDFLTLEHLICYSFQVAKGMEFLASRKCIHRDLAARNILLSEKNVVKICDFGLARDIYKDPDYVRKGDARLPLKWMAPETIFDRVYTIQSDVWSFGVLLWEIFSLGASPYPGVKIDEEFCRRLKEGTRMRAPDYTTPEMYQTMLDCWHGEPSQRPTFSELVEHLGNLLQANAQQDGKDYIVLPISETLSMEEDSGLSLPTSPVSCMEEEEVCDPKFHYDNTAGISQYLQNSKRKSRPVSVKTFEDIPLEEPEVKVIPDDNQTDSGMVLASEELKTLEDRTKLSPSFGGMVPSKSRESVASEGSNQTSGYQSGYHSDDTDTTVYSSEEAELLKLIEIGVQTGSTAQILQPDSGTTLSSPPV
Sequence of Fibroblast growth factor receptor 1 (P11362 whole entry): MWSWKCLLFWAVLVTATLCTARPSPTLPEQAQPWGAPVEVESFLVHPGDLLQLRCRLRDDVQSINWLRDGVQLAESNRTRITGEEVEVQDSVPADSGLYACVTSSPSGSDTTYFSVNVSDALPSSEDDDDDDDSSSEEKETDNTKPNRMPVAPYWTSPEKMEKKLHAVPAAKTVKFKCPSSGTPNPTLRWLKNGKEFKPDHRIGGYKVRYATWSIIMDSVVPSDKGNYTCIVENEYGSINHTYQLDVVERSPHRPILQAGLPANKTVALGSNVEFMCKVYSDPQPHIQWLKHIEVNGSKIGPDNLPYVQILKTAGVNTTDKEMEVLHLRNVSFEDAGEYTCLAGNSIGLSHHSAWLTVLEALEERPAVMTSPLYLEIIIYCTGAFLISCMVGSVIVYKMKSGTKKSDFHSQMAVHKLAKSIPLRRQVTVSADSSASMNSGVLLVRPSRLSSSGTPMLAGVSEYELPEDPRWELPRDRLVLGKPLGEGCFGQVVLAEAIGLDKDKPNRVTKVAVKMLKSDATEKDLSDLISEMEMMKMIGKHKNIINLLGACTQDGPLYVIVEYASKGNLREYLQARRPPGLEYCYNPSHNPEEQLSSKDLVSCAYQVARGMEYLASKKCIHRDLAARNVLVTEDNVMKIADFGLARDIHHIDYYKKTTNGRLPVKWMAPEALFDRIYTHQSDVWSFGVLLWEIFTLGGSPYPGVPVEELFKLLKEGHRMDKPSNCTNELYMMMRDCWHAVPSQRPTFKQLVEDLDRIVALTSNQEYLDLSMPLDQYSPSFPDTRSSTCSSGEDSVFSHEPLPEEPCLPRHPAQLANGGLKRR

For the compound `O=C(N/N=C/c1cc(C(=O)O)c(Nc2ccc(I)cc2F)c(F)c1F)c1ccc(CO)o1`, the pIC50 was 5.52 at Aurora kinase A; 5.30 in [1]; 5.52 in [2]; 5.70 in assay [3]; 5.52 on Ephrin type-A receptor 2 [4]; 4.82 in assay [5]. For the same compound, the negative logarithm of the IC50 (pIC50) was 5.40 in assay [6]; less than 4.52 in assay [7]; 6.52 in [8]; less than 4.52 in [9]; 7.00 in assay [10].
Take `O=C(CS(=O)(=O)c1ccc(Cl)cc1)N/N=C/c1cc(C(=O)O)c(Nc2ccc(I)cc2F)c(F)c1F`: the negative-log IC50 (pIC50) is 5.40 at Aurora kinase A; 5.00 in assay [1]; less than 4.52 in assay [2]; less than 4.52 in assay [3]; less than 4.52 on Ephrin type-A receptor 2 [4]; 5.52 in assay [5]. Also, the pIC50 in assay [11] was less than 4.52; in assay [7], less than 4.52; in assay [8], 5.40; in assay [10], 5.52.
`CS(=O)(=O)c1ccc(CNCc2cc(C(=O)O)c(Nc3ccc(I)cc3F)c(F)c2F)cc1`: the pIC50 at Aurora kinase A was 6.00; in [12], less than 4.52; in assay [1], less than 4.52; in assay [2], 4.74; in assay [3], less than 4.52; on Ephrin type-A receptor 2 [4], less than 4.52. Further, the negative logarithm of the IC50 (pIC50) was less than 4.52 in assay [5]; less than 4.52 in [11]; 5.30 in [6]; less than 4.52 in [7]; less than 4.52 in assay [8]; less than 4.52 in assay [10].
With `O=C(O)CCCO/N=C/c1cc(C(=O)NOCCO)c(Nc2ccc(I)cc2F)c(F)c1F`, the inhibition in [13] turned out to be 25%; in [14] it was 18%; in assay [15] it was 1%; in [16], 33%; on Ephrin type-A receptor 2 [17], 37%; in [18], 25%. Besides, the inhibition was 22% in [19], 29% in assay [20], 4% in [21] and 39% in assay [22].
In the case of `COCCCNC(=O)N/N=C/c1cc(C(=O)NOCCO)c(Nc2ccc(I)cc2F)c(F)c1F`, the inhibition in assay [13] stood at 0%; in [14], 1%; in [15], 0%; in [16] it was 0%; at Ephrin type-A receptor 2 [17] it was 7%; in [18] it was 10%. Further, the inhibition is 16% in assay [19], 0% in assay [20], 31% in assay [21] and 0% in assay [22].
Take `NC(=O)C[C@H](N)C(=O)NCc1cc(C(=O)O)c(Nc2ccc(I)cc2F)c(F)c1F`: the negative logarithm of the IC50 (pIC50) on Aurora kinase A is 5.70; in assay [12] it was less than 4.52; in [1], less than 4.52; in [2], less than 4.52; in [3], less than 4.52; on Ephrin type-A receptor 2 [4] it was less than 4.52. Moreover, the pIC50 in assay [5] was less than 4.52; in assay [11], less than 4.52; in [6], less than 4.52; in [7], 5.70; in assay [8], less than 4.52; in assay [9] it was 5.22. Also, the pIC50 in [10] is 5.40.
For `O=C(O)c1ccc(F)c(F)c1Nc1ccc(I)cc1Cl` [ZAPNOMETINIB], the negative logarithm of the IC50 (pIC50) in assay [23] is 8.24.
In the case of `Cc1cc(I)ccc1Nc1c(C(=O)O)ccc(F)c1F`, the negative-log IC50 (pIC50) in assay [23] was 7.96.
Regarding `O=C(O)c1ccc(CO/N=C/c2cc(C(=O)NOCCO)c(Nc3ccc(I)cc3F)c(F)c2F)o1`, the inhibition in [13] came out at 20%; in assay [14], 28%; in assay [15], 0%; in [16], 28%; on Ephrin type-A receptor 2 [17], 22%; in assay [18], 27%. Also, the inhibition in [19] is 36%; in assay [20] it was 21%; in [21] it was 19%; in assay [22] it was 60%.
`O=C(NOCCO)c1ccc(F)c(F)c1Nc1ccc(I)cc1F`: the inhibition worked out at 2% in assay [13]; 9% in assay [14]; 14% in assay [15]; 10% in [16]; 9% at Ephrin type-A receptor 2 [17]; 9% in [18]. The inhibition was found to be 0% in assay [19], 11% in [20], 5% in assay [21] and 0% in assay [22].
Consider `O=C(NOCCO)c1cc(/C=N/OCCO)c(F)c(F)c1Nc1ccc(I)cc1F`, for which the inhibition in assay [13] amounted to 0%; in assay [14], 2%; in assay [15], 0%; in [16], 0%; on Ephrin type-A receptor 2 [17], 9%; in assay [18], 1%. The inhibition in [19] was found to be 5%; in assay [20] it was 5%; in [21], 1%; in assay [22], 0%.
For `O=C(NOCCO)c1cc(COCCO)c(F)c(F)c1Nc1ccc(I)cc1F`, the inhibition is 13% in assay [13]; 5% in assay [14]; 27% in assay [15]; 22% in [16]; 13% at Ephrin type-A receptor 2 [17]; 0% in [18]. Moreover, the inhibition in [19] stood at 25%; in [20], 2%; in [21] it was 5%; in assay [22], 0%.

For orientation: pIC50 means the negative decadic logarithm of the IC50, by convention in mol/L. The inhibition is the relative decrease from the control value, in per cent.

The values above are taken from ChEMBL document CHEMBL1139272, “Beyond the MEK-pocket: can current MEK kinase inhibitors be utilized to synthesize novel type III NCKIs? Does the MEK-pocket exist in kinases other than MEK?” (Bioorg Med Chem Lett, 2009).
